Four compounds from patent US8895504B2, “Amylin derivatives” (priority 2008, dated 2014) can be followed below.

*1 amine or outer side, *2 acyl side, *3 side chain or, on linkers, in order; H or OH if unused. Where a SMILES comes first, the peptide text is derived from it. Bridges are numbered along the chain shown (N, C = ends). The star is where a group is joined. C20 diacid = O=C(O)CCCCCCCCCCCCCCCCCCC(=O)*; γGlu = O=C(O)[C@H](CCC(=O)[*:2])N[*:1]

In the test the target is T1, Amylin 3(a) receptor (human calcitonin receptor (CTa) and RAMP-3) (Homo sapiens, UniProt O60896+P30988).
T1 construct: expressed in transfected cells; host or cells: BHK570 cells, stably transfected with a CRE-luciferase reporter
Kind of test: Luciferase assay (III), BHK Amylin 3(a)//CRE-luc cells. In kind it is cell-based. Conditions: BHK cells with Amylin 3(a) receptor and CRE luciferase reporter, 4 hours incubation; read-out: Potency Luciferase. The method in brief:
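Read-out is CRE-driven luciferase luminescence, taken 30 min after LucLite addition at room temperature. Compounds were incubated 4 h at 37° C in assay medium (10% FBS, 10 mM Hepes, pH 7,4). The cell line is BHK570 co-transfected with human calcitonin receptor CTa and RAMP-3, seeded overnight before use.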
Background: Reporter assays use an easily measured gene product as a stand-in for the process of interest.

T1 sequence (O60896 24-148): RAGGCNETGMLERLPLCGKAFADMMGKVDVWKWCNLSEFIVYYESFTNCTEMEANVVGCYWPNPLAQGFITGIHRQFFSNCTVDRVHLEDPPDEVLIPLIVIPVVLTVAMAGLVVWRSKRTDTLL
T1 sequence (P30988 25-474): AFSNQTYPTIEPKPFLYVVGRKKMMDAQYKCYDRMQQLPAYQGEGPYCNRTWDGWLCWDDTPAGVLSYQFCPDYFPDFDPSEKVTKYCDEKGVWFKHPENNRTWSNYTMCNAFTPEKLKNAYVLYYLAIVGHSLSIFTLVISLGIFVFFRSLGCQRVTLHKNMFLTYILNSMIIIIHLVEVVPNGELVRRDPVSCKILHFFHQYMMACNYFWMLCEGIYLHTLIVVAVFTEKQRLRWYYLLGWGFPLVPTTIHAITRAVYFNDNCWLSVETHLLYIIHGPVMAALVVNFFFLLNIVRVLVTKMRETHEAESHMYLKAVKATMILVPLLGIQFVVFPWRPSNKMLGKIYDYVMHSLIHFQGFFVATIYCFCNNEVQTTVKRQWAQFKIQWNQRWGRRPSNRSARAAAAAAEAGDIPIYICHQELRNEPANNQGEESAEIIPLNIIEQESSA

`CC[C@H](C)[C@H](NC(=O)[C@@H]1CCCN1C(=O)CNC(=O)[C@H](Cc1ccccc1)NC(=O)[C@H](CC(N)=O)NC(=O)[C@H](CC(N)=O)NC(=O)[C@H](CO)NC(=O)[C@H](CO)NC(=O)[C@H](Cc1c[nH]cn1)NC(=O)[C@H](Cc1c[nH]cn1)NC(=O)[C@H](CC(C)C)NC(=O)[C@H](Cc1ccccc1)NC(=O)[C@H](CC(N)=O)NC(=O)[C@H](C)NC(=O)[C@H](CC(C)C)NC(=O)[C@H](CCCNC(=N)N)NC(=O)[C@H](CCC(N)=O)NC(=O)[C@@H](NC(=O)[C@H](C)NC(=O)[C@@H]1CSSC[C@H](NC(=O)[C@H](CCCNC(=N)N)NC(=O)[C@H](Cc2c[nH]cn2)NC(=O)[C@H](CCCNC(=N)N)NC(=O)[C@H](CCC(=O)O)NC(=O)CC[C@H](NC(=O)CCCCCCCCCCCCCCCCCCC(=O)O)C(=O)O)C(=O)N[C@@H](CC(N)=O)C(=O)N[C@@H]([C@@H](C)O)C(=O)N[C@@H](C)C(=O)N[C@@H]([C@@H](C)O)C(=O)N1)[C@@H](C)O)C(=O)N[C@@H](CC(C)C)C(=O)N1CCC[C@H]1C(=O)N1CCC[C@H]1C(=O)N[C@H](C(=O)N[C@@H](CC(N)=O)C(=O)N[C@H](C(=O)NCC(=O)N[C@@H](CO)C(=O)N[C@@H](CC(N)=O)C(=O)N[C@H](C(=O)N[C@@H](Cc1ccc(O)cc1)C(N)=O)[C@@H](C)O)C(C)C)[C@@H](C)O` [Example 69, N-alpha-[(S)-4-Carboxy-4-(19-carboxynonadecanoylamino)butyryl]-Glu-Arg-His-[Arg1,His17]-pramlintide] ({C20 diacid-γGlu}-ERHRCNTATCATQRLANFLHHSSNNFGPILPPTNVGSNTY-NH2; disulfide 5-10): the EC50 was determined as 0.1 nM.

For `CC[C@H](C)[C@H](NC(=O)[C@@H]1CCCN1C(=O)CNC(=O)[C@H](Cc1ccccc1)NC(=O)[C@H](CC(N)=O)NC(=O)[C@H](CC(N)=O)NC(=O)[C@H](CO)NC(=O)[C@H](CO)NC(=O)[C@H](Cc1c[nH]cn1)NC(=O)[C@H](Cc1c[nH]cn1)NC(=O)[C@H](CC(C)C)NC(=O)[C@H](Cc1ccccc1)NC(=O)[C@H](CC(N)=O)NC(=O)[C@H](C)NC(=O)[C@H](CC(C)C)NC(=O)[C@H](CCCNC(=N)N)NC(=O)[C@H](CCC(N)=O)NC(=O)[C@@H](NC(=O)[C@H](C)NC(=O)[C@@H]1CSSC[C@H](NC(=O)[C@H](CCCNC(=N)N)NC(=O)[C@H](Cc2c[nH]cn2)NC(=O)[C@H](CCCNC(=N)N)NC(=O)CC[C@H](NC(=O)CCCCCCCCCCCCCCCCCCC(=O)O)C(=O)O)C(=O)N[C@@H](CC(N)=O)C(=O)N[C@@H]([C@@H](C)O)C(=O)N[C@@H](C)C(=O)N[C@@H]([C@@H](C)O)C(=O)N1)[C@@H](C)O)C(=O)N[C@@H](CC(C)C)C(=O)N1CCC[C@H]1C(=O)N1CCC[C@H]1C(=O)N[C@H](C(=O)N[C@@H](CC(N)=O)C(=O)N[C@H](C(=O)NCC(=O)N[C@@H](CO)C(=O)N[C@@H](CC(N)=O)C(=O)N[C@H](C(=O)N[C@@H](Cc1ccc(O)cc1)C(N)=O)[C@@H](C)O)C(C)C)[C@@H](C)O` [Example 70, N-alpha-[(S)-4-Carboxy-4-(19-carboxynonadecanoylamino)butyryl]-Arg-His[Arg1,His17]-pramlintide] ({C20 diacid-γGlu}-RHRCNTATCATQRLANFLHHSSNNFGPILPPTNVGSNTY-NH2; disulfide 4-9), the EC50 was 0.1 nM. Take `CC[C@H](C)[C@H](NC(=O)[C@@H]1CCCN1C(=O)CNC(=O)[C@H](Cc1ccccc1)NC(=O)[C@H](CC(N)=O)NC(=O)[C@H](CC(N)=O)NC(=O)[C@H](CO)NC(=O)[C@H](CO)NC(=O)[C@H](Cc1c[nH]cn1)NC(=O)[C@H](Cc1c[nH]cn1)NC(=O)[C@H](CC(C)C)NC(=O)[C@H](Cc1ccccc1)NC(=O)[C@H](CC(N)=O)NC(=O)[C@H](C)NC(=O)[C@H](CC(C)C)NC(=O)[C@H](CCCNC(=N)N)NC(=O)[C@H](CCC(N)=O)NC(=O)[C@@H](NC(=O)[C@H](C)NC(=O)[C@@H]1CSSC[C@H](NC(=O)[C@H](CCCNC(=N)N)NC(=O)[C@H](Cc2c[nH]cn2)NC(=O)[C@H](Cc2c[nH]cn2)NC(=O)CC[C@H](NC(=O)CCCCCCCCCCCCCCCCCCC(=O)O)C(=O)O)C(=O)N[C@@H](CC(N)=O)C(=O)N[C@@H]([C@@H](C)O)C(=O)N[C@@H](C)C(=O)N[C@@H]([C@@H](C)O)C(=O)N1)[C@@H](C)O)C(=O)N[C@@H](CC(C)C)C(=O)N1CCC[C@H]1C(=O)N1CCC[C@H]1C(=O)N[C@H](C(=O)N[C@@H](CC(N)=O)C(=O)N[C@H](C(=O)NCC(=O)N[C@@H](CO)C(=O)N[C@@H](CC(N)=O)C(=O)N[C@H](C(=O)N[C@@H](Cc1ccc(O)cc1)C(N)=O)[C@@H](C)O)C(C)C)[C@@H](C)O` [Example 71, N-alpha-[(S)-4-Carboxy-4-(19-carboxynonadecanoylamino)butyryl]-His-His-[Arg1,His17]-pramlintide] ({C20 diacid-γGlu}-HHRCNTATCATQRLANFLHHSSNNFGPILPPTNVGSNTY-NH2; disulfide 4-9): the EC50 was determined as 0.09 nM.

For `CC[C@H](C)[C@H](NC(=O)[C@@H]1CCCN1C(=O)CNC(=O)[C@H](Cc1ccccc1)NC(=O)[C@H](CC(N)=O)NC(=O)[C@H](CC(N)=O)NC(=O)[C@H](CO)NC(=O)[C@H](CO)NC(=O)[C@H](Cc1c[nH]cn1)NC(=O)[C@H](Cc1c[nH]cn1)NC(=O)[C@H](CC(C)C)NC(=O)[C@H](Cc1ccccc1)NC(=O)[C@H](CC(N)=O)NC(=O)[C@H](C)NC(=O)[C@H](CC(C)C)NC(=O)[C@H](CCCNC(=N)N)NC(=O)[C@H](CCC(N)=O)NC(=O)[C@@H](NC(=O)[C@H](C)NC(=O)[C@@H]1CSSC[C@H](NC(=O)[C@H](Cc2c[nH]cn2)NC(=O)[C@H](CCCNC(=N)N)NC(=O)[C@H](Cc2c[nH]cn2)NC(=O)CC[C@H](NC(=O)CCCCCCCCCCCCCCCCCCC(=O)O)C(=O)O)C(=O)N[C@@H](CC(N)=O)C(=O)N[C@@H]([C@@H](C)O)C(=O)N[C@@H](C)C(=O)N[C@@H]([C@@H](C)O)C(=O)N1)[C@@H](C)O)C(=O)N[C@@H](CC(C)C)C(=O)N1CCC[C@H]1C(=O)N1CCC[C@H]1C(=O)N[C@H](C(=O)N[C@@H](CC(N)=O)C(=O)N[C@H](C(=O)NCC(=O)N[C@@H](CO)C(=O)N[C@@H](CC(N)=O)C(=O)N[C@H](C(=O)N[C@@H](Cc1ccc(O)cc1)C(N)=O)[C@@H](C)O)C(C)C)[C@@H](C)O` [Example 72, N-alpha-[(S)-4-Carboxy-4-(19-carboxynonadecanoylamino)butyryl]-His-Arg-[His1,His17]-pramlintide] ({C20 diacid-γGlu}-HRHCNTATCATQRLANFLHHSSNNFGPILPPTNVGSNTY-NH2; disulfide 4-9), the EC50 stood at 0.05 nM.
